Data taken from patent US20030203414A1, “COMPOUNDS THAT INHIBIT THE INTERACTION BETWEEN SIGNAL-TRANSDUCING PROTEINS AND THE GLGF (PDZ/DHR) DOMAIN AND USES THEREOF” (priority 1999, published 2003).
Entries after “also recorded” stand apart in the source; their conditions may differ. No end group written: not given here.

Assays:
[1] = molecular target: T1, binding of FAP-1 to Fas proteins extracted from Jurkat T-cells (Homo sapiens, UniProt Q12923); experiment: Immuno-precipitation of native Fas from Jurkat T-cell extracts with GST-FAP-1, inhibition with tripeptides; details: FIGS. 4C and 4D, Western analysis with anti-Fas monoclonal antibody
T1 construct: made in house; Fas is endogenous in Jurkat T-cell extract
T1 sequence (Q12923 whole entry): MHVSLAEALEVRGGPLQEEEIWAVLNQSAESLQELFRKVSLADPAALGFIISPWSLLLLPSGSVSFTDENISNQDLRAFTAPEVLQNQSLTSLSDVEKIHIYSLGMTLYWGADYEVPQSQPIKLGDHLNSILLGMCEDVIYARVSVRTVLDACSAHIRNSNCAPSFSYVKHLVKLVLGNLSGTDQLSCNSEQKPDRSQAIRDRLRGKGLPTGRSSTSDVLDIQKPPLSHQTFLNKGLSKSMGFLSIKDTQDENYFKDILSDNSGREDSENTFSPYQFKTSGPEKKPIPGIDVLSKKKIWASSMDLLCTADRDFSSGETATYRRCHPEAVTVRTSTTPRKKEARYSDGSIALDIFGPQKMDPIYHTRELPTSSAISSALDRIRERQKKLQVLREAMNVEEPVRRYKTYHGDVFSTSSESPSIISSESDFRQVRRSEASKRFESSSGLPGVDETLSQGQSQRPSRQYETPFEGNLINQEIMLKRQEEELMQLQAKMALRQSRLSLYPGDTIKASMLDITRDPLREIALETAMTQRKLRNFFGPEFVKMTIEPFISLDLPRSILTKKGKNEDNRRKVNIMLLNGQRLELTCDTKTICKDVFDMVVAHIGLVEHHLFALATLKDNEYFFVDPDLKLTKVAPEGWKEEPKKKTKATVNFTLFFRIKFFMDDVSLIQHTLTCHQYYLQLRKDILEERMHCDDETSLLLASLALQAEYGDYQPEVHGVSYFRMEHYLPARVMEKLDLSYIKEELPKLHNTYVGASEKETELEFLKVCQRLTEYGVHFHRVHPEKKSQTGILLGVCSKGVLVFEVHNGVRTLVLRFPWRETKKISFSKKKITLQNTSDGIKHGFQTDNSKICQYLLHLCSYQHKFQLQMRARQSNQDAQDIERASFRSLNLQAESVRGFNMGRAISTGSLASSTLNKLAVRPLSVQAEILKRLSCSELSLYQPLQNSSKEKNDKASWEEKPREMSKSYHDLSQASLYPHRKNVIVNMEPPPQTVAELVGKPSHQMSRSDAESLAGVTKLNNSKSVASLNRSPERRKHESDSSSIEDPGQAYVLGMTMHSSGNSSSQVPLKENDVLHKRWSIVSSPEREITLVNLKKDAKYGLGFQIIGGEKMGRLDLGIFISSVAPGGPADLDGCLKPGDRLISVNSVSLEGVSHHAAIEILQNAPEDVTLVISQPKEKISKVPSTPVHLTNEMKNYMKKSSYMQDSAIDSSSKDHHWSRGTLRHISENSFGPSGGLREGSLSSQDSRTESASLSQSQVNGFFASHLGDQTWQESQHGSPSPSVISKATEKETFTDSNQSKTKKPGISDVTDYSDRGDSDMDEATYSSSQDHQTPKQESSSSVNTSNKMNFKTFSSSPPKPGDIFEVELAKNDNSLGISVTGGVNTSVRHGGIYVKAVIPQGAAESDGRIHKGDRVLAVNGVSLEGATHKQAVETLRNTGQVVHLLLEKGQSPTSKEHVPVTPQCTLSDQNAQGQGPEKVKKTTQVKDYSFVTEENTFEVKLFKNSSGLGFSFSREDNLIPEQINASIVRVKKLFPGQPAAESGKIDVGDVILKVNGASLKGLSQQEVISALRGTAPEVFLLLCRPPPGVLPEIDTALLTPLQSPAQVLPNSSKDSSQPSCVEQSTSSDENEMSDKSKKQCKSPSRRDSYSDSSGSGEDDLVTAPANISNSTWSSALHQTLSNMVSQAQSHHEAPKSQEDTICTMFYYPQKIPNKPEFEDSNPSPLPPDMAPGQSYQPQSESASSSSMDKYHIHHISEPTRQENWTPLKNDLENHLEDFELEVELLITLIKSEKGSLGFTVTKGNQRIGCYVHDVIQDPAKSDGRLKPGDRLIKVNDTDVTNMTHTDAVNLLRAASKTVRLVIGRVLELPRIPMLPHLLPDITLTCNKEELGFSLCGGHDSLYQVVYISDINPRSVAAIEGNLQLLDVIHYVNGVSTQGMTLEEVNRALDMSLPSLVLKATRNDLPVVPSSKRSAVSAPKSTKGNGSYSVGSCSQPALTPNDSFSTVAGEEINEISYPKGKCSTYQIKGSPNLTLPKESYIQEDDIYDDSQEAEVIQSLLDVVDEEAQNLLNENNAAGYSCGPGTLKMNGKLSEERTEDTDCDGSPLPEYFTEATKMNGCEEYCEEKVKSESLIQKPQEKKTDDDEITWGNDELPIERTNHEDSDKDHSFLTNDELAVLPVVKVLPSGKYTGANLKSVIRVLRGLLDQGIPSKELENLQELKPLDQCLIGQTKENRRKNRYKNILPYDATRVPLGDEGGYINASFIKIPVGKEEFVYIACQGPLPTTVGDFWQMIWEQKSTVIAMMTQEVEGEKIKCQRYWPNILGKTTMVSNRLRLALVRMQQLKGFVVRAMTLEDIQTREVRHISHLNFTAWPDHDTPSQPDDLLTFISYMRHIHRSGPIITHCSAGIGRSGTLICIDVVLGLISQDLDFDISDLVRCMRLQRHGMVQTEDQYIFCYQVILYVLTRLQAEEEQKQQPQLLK
Protocol: GST-fusion proteins with or without FAP-1 were incubated with cell extracts from Jurkat T-cells expressing Fas. The bound Fas was detected by Western analysis using anti-Fas monoclonal antibody (F22120, Transduction Laboratories). The tripeptides, Ac-SLV and Ac-SLY were used for the inhibition assay of Fas/FAP-1 binding.

Fas/FAP-1 binding = experiment: In vitro inhibition assay of Fas/FAP-1 binding (GST-Fas fusion protein and in vitro-translated 35S-labeled FAP-1); details: for binding of in vitro-translated FAP-1 to GST-Fas: FIG. 3A, GST-Fas (191-355), C-terminal 15 amino acids at 1-1000 μM, human PAMP at 1 mM as negative control
Sequence of Fas/FAP-1 binding (Q12923 1361-1456 limits assumed): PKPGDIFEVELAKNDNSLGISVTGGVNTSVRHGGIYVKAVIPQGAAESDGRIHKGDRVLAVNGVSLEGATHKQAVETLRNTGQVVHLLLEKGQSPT
Protocol: HFAP-10 cDNA (Sato, et al. 1995) subcloned into the Bluescript vector pSK-II (Stratagene) was in vitro-translated from an internal methionine codon in the presence of ^35S-L-methionine using a coupled in vitro transcription/translation system (Promega, TNT lysate) and T7 RNA polymerase. The resulting ^35S-labeled protein was incubated with GST-Fas fusion proteins that had been immobilized on […] affinity beads (Pharmacia) in a buffer containing 150 mM NaCl, 50 mM Tris [pH 8.0], 5 mM DTT, 2 mM EDTA, 0.1% NP-40, 1 mM PMSF, 50 μg/ml leupeptin, 1 mM Benzamidine, and 7 μg/ml pepstatin for 16 hours at 4° C. After washing vigorously 4 times in the same buffer, associated proteins were recovered with the glutathione-Sepharose beads by centrifugation, eluted into boiling Laemmli buffer, and analyzed by SDS-PAGE and fluorography.
In vitro-translated [^35]HFAP-1 was purified with a NAP-5 column (Pharmacia) and incubated with 3 μM of GST-fusion proteins for 16 hours at 4° C. After washing 4 times in the binding buffer, radioactivity incorporation was determined in a b counter. The percentage of binding inhibition was calculated as follows: percent inhibition=[radioactivity incorporation using GST-Fas (191-335) with peptides−radioactivity incorporation using GST-Fas (191-320) with peptides]/[radioactivity incorporation using GST-Fas (191-335) without peptides−radioactivity incorporation using GST-Fas (191-320) without peptides]. n=3.

[2] = system: DLD-1 human colon cancer cells; experiment: Microinjection of synthetic tripeptides into DLD-1 cells, Fas-induced apoptosis; format: cell-based; details: tripeptide 100 mM microinjected into the cytoplasm; CH11 500 ng/ml; 16 to 20 hours postinjection; condensed chromatin, Hoechst 33342
Protocol: DLD-1 human colon cancer cells were cultured in RPMI 1640 medium containing 10% FCS. For microinjection, cells were plated on CELLocate (Eppendorf) at 1×10^5 cells/2 ml in a 35 mm plastic culture dish and grown for 1 day. Just before microinjection, Fas monoclonal antibodies CH11 (MBL International) was added at the concentration of 500 ng/ml. All microinjection experiments were performed using an automatic microinjection system (Eppendorf transjector 5246, micro-manipulator 5171 and Femtotips) (Pantel, et al. 1995). Synthetic tripeptides were suspended in 0.1% (w/v) FITC-Dextran (Sigma)/K-PBS at the concentration of 100 mM. The samples were microinjected into the cytoplasmic region of DLD-1 cells. Sixteen to 20 hours postinjection, the cells were washed with PBS and stained with 10 μg/ml Hoechst 33342 in PBS. After incubation at 37° C. for 30 minutes, the cells were photographed and the cells showing condensed chromatin were counted as apoptotic.
For each experiment, 25-100 cells were microinjected. Apoptosis of microinjected cells was determined by assessing morphological changes of chromatin using phase contrast and fluorescence microscopy (Wang, et al., 1995; McGahon, et al., 1995). The data are means +/−S.D. for two or three independent determinations.

| binding activity of FAP-1 to Fas proteins extracted from Jurkat T-cells [1] | inhibitory effect on the binding of FAP-1 to Fas, truncated C-terminal peptides (Fas/FAP-1 binding; FIG. 3B, acetylated synthetic peptides) | binding of in vitro-translated FAP-1 to GST-Fas (Fas/FAP-1 binding) | Substance | induction of apoptosis in microinjected DLD-1 cells [2] |
| --- | --- | --- | --- | --- |
| abolished in a dose-dependent manner | same level of inhibitory effect | – | Ac-SLV-COOH (Ac-Ser-Leu-Val-OH) [acetylated tripeptide, the three C-terminal amino acids of Fas] | dramatically induced apoptosis; also recorded: showed condensed chromatin |
| not | – | – | Ac-SLY: acetylated synthetic tripeptide SLY used as a non-binding control (Ac-Ser-Leu-Tyr) [reference compound] | did not; also recorded: only one cell of the area appeared apoptotic |
| – | – | dramatically reduced | DSENSNFRNEIQSLV (Ac-DSENSNFRNEIQSLV) [synthetic 15 amino acids of Fas, synthetic peptide of the C-terminal 15 amino acids of Fas] | – |
| – | – | had no effect | human PAMP peptide: N-terminal 20 amino acids of proadrenomedullin, negative control (ARLDVASEFRKKWNKWALSR; ends and bridges not checked; UniProt P35318 22-41, looked up) [reference compound] | – |
